The source of these data is PubChem BioAssay (NCI).

Each structure is given as a SMILES string.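 Dose response: 5 concentrations. Exposure: 48 h. Format: 96-well plates. Endpoint: linear interpolation; highest concentration if not reached. The concentration for full growth arrest is given as TGI.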

Test systems include SW-620 colon; SNB-75 CNS; HL-60(TB) leukemia; MDA-MB-435; UO-31 renal; BT-549 breast; SK-MEL-28 melanoma; RPMI-8226 leukemia; PC-3 prostate; SN12C renal.
Holding throughout (experiment): NCI anticancer screen, dose series, 48 h

For `CC(=O)OCCC1c2ccccc2-n2nc(-c3ccccc3)c(O)c21` (stereo not given), the TGI in the assay on SW-620 colon came to 31.6 µM; in the assay on SNB-75 CNS it was 37.7 µM; in the assay on HL-60(TB) leukemia it was 38.4 µM; with MDA-MB-435, 32.3 µM; in the assay with UO-31 renal, 30.8 µM; with BT-549 breast it was 33.3 µM. For the same compound, the TGI with SK-MEL-28 melanoma was found to be 30.6 µM; with RPMI-8226 leukemia, 33.7 µM; in the assay with PC-3 prostate, 34.3 µM; in the assay with SN12C renal it was 31.1 µM.
Consider `COc1cc2c(cc1OC)C1Cc3ccccc3CCN1CC2` (stereo not given), for which the TGI in the assay on SW-620 colon, in the assay with SNB-75 CNS, with HL-60(TB) leukemia, in the assay on MDA-MB-435, in the assay with UO-31 renal and in the assay on BT-549 breast was over 100 µM each time. Also, the TGI with SK-MEL-28 melanoma, with RPMI-8226 leukemia, with PC-3 prostate and in the assay with SN12C renal was over 100 µM each time.
As for `O=C(O)C(Cc1ccc2c(c1)CCC2)(Cc1ccc2c(c1)CCC2)C(=O)O`, the TGI with SW-620 colon, with SNB-75 CNS, with HL-60(TB) leukemia, in the assay with MDA-MB-435, in the assay with UO-31 renal and in the assay on BT-549 breast was over 100 µM in each case. Besides, the TGI in the assay with SK-MEL-28 melanoma, in the assay with RPMI-8226 leukemia, in the assay on PC-3 prostate and in the assay on SN12C renal was over 100 µM each time.
In the case of `CNNC1=NS(=O)(=O)c2cc(C)c(Cl)cc2S1`, the TGI in the assay with SW-620 colon was over 10 µM; in the assay with SNB-75 CNS it was over 10 µM; with HL-60(TB) leukemia, over 10 µM; in the assay with MDA-MB-435, over 10 µM; with UO-31 renal, 0.0901 µM; in the assay on BT-549 breast, over 10 µM. Besides, the TGI with SK-MEL-28 melanoma, in the assay on RPMI-8226 leukemia, with PC-3 prostate and in the assay on SN12C renal was over 10 µM throughout.
As to `COc1ccccc1/C=C1\Sc2scc(-c3cccc([N+](=O)[O-])c3)[n+]2C1=O`, the TGI is over 36.4 µM in the assay on SW-620 colon; 34.4 µM with SNB-75 CNS; 1.17 µM in the assay with HL-60(TB) leukemia; 18.2 µM in the assay with MDA-MB-435; 9.86 µM in the assay with UO-31 renal; 12.6 µM with BT-549 breast. For the same compound, the TGI turned out to be 65.2 µM with SK-MEL-28 melanoma, 9.28 µM in the assay with RPMI-8226 leukemia, 37.4 µM in the assay on PC-3 prostate and 11.5 µM in the assay on SN12C renal.
Turning to `Cc1cc(C)c(S(=O)(=O)N[C@@H](/C=C(\Br)CO)C(C)C)c(C)c1`, the TGI in the assay with SW-620 colon is over 100 µM; in the assay on SNB-75 CNS it was over 100 µM; in the assay with HL-60(TB) leukemia, 40.3 µM; in the assay with MDA-MB-435 it was 34.1 µM; in the assay on UO-31 renal it was over 100 µM; with BT-549 breast it was 85.2 µM. The TGI was over 100 µM with SK-MEL-28 melanoma, 54.5 µM in the assay with RPMI-8226 leukemia, 48.9 µM in the assay on PC-3 prostate and 32 µM with SN12C renal.
For the compound `O=C(c1ccc(Cl)cc1Cl)N(Cc1cccnc1)C(=S)N(Cc1cccnc1)C(=O)c1ccc(Cl)cc1Cl`, the TGI in the assay with SW-620 colon is 80.5 µM; in the assay on SNB-75 CNS it was 14 µM; in the assay with HL-60(TB) leukemia, 15.3 µM; in the assay with MDA-MB-435, 66 µM; with UO-31 renal, 12.9 µM; with BT-549 breast, 14.8 µM. The TGI in the assay with SK-MEL-28 melanoma was 33.7 µM; in the assay on RPMI-8226 leukemia, over 100 µM; in the assay with PC-3 prostate, 7.55 µM; with SN12C renal it was 18.3 µM.
Regarding `Nc1nc(Cl)c(C=O)c(NCC2(CO)CC(CCc3ccccc3)C2)n1` (stereo not given), the TGI in the assay on SW-620 colon worked out at 15.3 µM; in the assay with SNB-75 CNS it was 37.5 µM; in the assay on HL-60(TB) leukemia, 3.34 µM; with MDA-MB-435 it was 17.9 µM; with UO-31 renal, 2.91 µM; in the assay on BT-549 breast, 27.5 µM. Besides, the TGI was 12.1 µM in the assay on SK-MEL-28 melanoma, 35.8 µM in the assay on RPMI-8226 leukemia, 16.3 µM with PC-3 prostate and 19 µM with SN12C renal.
For `COC(=O)C1Cc2c([nH]c3ccccc23)C(c2cccc(O)c2)N1` (stereo not given), the TGI is 60.8 µM in the assay with SW-620 colon; 74.3 µM with SNB-75 CNS; 48.2 µM in the assay on HL-60(TB) leukemia; 36.6 µM with MDA-MB-435; over 100 µM with UO-31 renal; 72 µM in the assay on BT-549 breast. Moreover, the TGI with SK-MEL-28 melanoma is 73.4 µM; in the assay on RPMI-8226 leukemia, 87.3 µM; in the assay with PC-3 prostate, 80.3 µM; in the assay on SN12C renal it was over 100 µM.
